Experimental data taken from US20150105252A1, “SUBSTITUTED PYRAZOLES AS HERBICIDES” (E I DU PONT DE NEMOURS AND COMPANY, priority 2013, published 2015).

What was measured:
[1] = tested on: pigweed; assay: Test C postemergence; assay type: in vivo, Amaranthus retroflexus; details: for Pigweed plant response rating / Plant response rating, Pigweed: postemergence; for Pigweed plant response rating: 62 g ai/ha, scale 0 to 100
Procedure, shortened: (§1)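 Pre- and postemergence greenhouse screen; vehicle was a non-phytotoxic solvent mix with surfactant. Preemergence: treatment applied right after sowing into loam and sand. Postemergence: treated at 1–4 leaves. Visual rating at 13–15 days, 100 = complete control.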

[2] = tested on: blackgrass; assay: Test C preemergence; assay type: in vivo, Alopecurus myosuroides
Procedure, shortened: as §1

[3] = tested on: oat, wild; assay: Test C postemergence; assay type: in vivo, Avena fatua; details: for Plant response rating (scale of 0 to 100 where 0 is no effect and 100 is complete control), Oat, Wild: Postemergence, 31 g ai/ha, visually evaluated after 13 to 15 days; for Oat, Wild plant response rating / Plant response rating, Oat, Wild: postemergence; for Oat, Wild plant response rating: 62 g ai/ha, scale 0 to 100
Procedure, shortened: as §1

[4] = tested on: wheat; assay: Test C preemergence; assay type: in vivo, Triticum aestivum
Procedure, shortened: as §1

[5] = tested on: lambsquarters; assay: Test C preemergence; assay type: in vivo, Chenopodium album
Procedure, shortened: as §1

[6] = tested on: barnyardgrass; assay: Test B flood; assay type: in vivo, Echinochloa crus-galli; details: 250 g ai/ha, visual rating on 0 to 100 scale (0 no effect, 100 complete control), 13 to 15 days
Procedure, shortened: (§2)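 At two leaves, seedlings received the test compound via the paddy water, pots having been flooded 3 cm over the soil surface and kept so. Greenhouse-held for 13 to 15 days, then judged by eye against controls on a scale running 0 (no effect) to 100 (complete control).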

[7] = tested on: morningglory; assay: Test C postemergence; assay type: in vivo, Ipomoea coccinea; details: for Plant response rating (scale of 0 to 100 where 0 is no effect and 100 is complete control), Morningglory: Postemergence, 31 g ai/ha, visually evaluated after 13 to 15 days; for Morningglory plant response rating / Plant response rating, Morningglory: postemergence; for Morningglory plant response rating: 62 g ai/ha, scale 0 to 100
Procedure, shortened: as §1

[8] = tested on: rice; assay: Test B flood; assay type: in vivo, Oryza sativa; details: 250 g ai/ha, visual rating on 0 to 100 scale (0 no effect, 100 complete control), 13 to 15 days
Procedure, shortened: as §2

[9] = tested on: johnsongrass; assay: Test C postemergence; assay type: in vivo, Sorghum halepense; details: for Plant response rating (scale of 0 to 100 where 0 is no effect and 100 is complete control), Johnsongrass: Postemergence, 31 g ai/ha, visually evaluated after 13 to 15 days; for Johnsongrass plant response rating / Plant response rating, Johnsongrass: postemergence; for Johnsongrass plant response rating: 62 g ai/ha, scale 0 to 100
Procedure, shortened: as §1

[10] = tested on: nutsedge, yellow; assay: Test C preemergence; assay type: in vivo, Cyperus esculentus
Procedure, shortened: as §1

[11] = tested on: nutsedge, yellow; assay: Test C postemergence; assay type: in vivo, Cyperus esculentus; details: for Plant response rating (scale of 0 to 100 where 0 is no effect and 100 is complete control), Nutsedge, Yellow: Postemergence, 31 g ai/ha, visually evaluated after 13 to 15 days; for Nutsedge, Yellow plant response rating / Plant response rating, Nutsedge, Yellow: postemergence; for Nutsedge, Yellow plant response rating: 62 g ai/ha, scale 0 to 100
Procedure, shortened: as §1

[12] = tested on: foxtail, giant; assay: Test C postemergence; assay type: in vivo, Setaria faberii; details: for Plant response rating (scale of 0 to 100 where 0 is no effect and 100 is complete control), Foxtail, Giant: Postemergence, 31 g ai/ha, visually evaluated after 13 to 15 days; for Foxtail, Giant plant response rating / Plant response rating, Foxtail, Giant: postemergence; for Foxtail, Giant plant response rating: 62 g ai/ha, scale 0 to 100
Procedure, shortened: as §1

[13] = tested on: ryegrass, Italian; assay: Test C postemergence; assay type: in vivo, Lolium multiflorum
Procedure, shortened: as §1

[14] = Postemergence, 31 g ai/ha, visually evaluated after 13 to 15 days
[15] = 250 g ai/ha, scale 0 to 100 (0 no effect, 100 complete control)
[16] = 125 g ai/ha, scale 0 to 100, 0 no effect, 100 complete control
[17] = preemergence, 31 g ai/ha, visual rating, scale 0 to 100 (0 no effect, 100 complete control), 13 to 15 days
[18] = preemergence, 62 g ai/ha, scale 0 to 100 (0 no effect, 100 complete control), 13 to 15 days
[19] = preemergence, 125 g ai/ha, scale 0 to 100, 0 is no effect, 100 is complete control
[20] = postemergence, 250 g ai/ha, scale 0 to 100 (0 no effect, 100 complete control)
[21] = postemergence, 125 g ai/ha, scale 0 to 100, 0 no effect, 100 complete control
[22] = preemergence, 125 g ai/ha, 13 to 15 days, scale 0 to 100, 0 = no effect, 100 = complete control
[23] = preemergence, 250 g ai/ha, scale 0 to 100, 0 is no effect, 100 is complete control

For `CCCNC(=O)c1cc(CC)n(Cc2nc(C(F)(F)F)nn2C)n1` [Compound 109], the “Plant response rating (scale of 0 to 100 where 0 is no effect and 100 is complete control), Pigweed” value [1, 14] was 10, the “Pigweed plant response rating” value [1] was 40 and the “Plant response rating, Pigweed” value [1, 15] was 65. For the same compound, the “Plant response rating, Pigweed” value [1, 16] was 65, the “Plant response rating (scale of 0 to 100), Blackgrass” value ([2]; Preemergence, 250 g ai/ha) was 100 and the “Blackgrass plant response rating” value [2, 17] was 100. For the same compound, the “Blackgrass plant response rating” value [2, 18] was 100, the “Blackgrass plant response rating” value [2, 19] was 100 and the “Plant response rating (scale of 0 to 100 where 0 is no effect and 100 is complete control), Oat, Wild” value [3] was 0. For the same compound, the “Oat, Wild plant response rating” value [3] was 5, the “Plant response rating, Oat, Wild” value [3, 15] was 5 and the “Plant response rating, Oat, Wild” value [3, 16] was 5. The “Plant response rating (scale of 0 to 100), Wheat” value ([4]; Preemergence, 250 g ai/ha) was 85, the “Wheat plant response rating” value [4, 17] was 0 and the “Wheat plant response rating” value [4, 18] was 15. For the same compound, the “Wheat plant response rating” value [4, 19] was 85, the “Plant response rating (scale of 0 to 100), Lambsquarters” value ([5]; Preemergence, 250 g ai/ha) was 100 and the “Lambsquarters plant response rating” value [5, 17] was 100. The “Lambsquarters plant response rating” value [5, 18] was 100, the “Lambsquarters plant response rating” value [5, 19] was 100 and the “Plant response rating, Barnyardgrass” value [6] was 0. For the same compound, the “Plant response rating (scale of 0 to 100 where 0 is no effect and 100 is complete control), Morningglory” value [7] was 65, the “Morningglory plant response rating” value [7] was 70 and the “Plant response rating, Morningglory” value [7, 15] was 85. The “Plant response rating, Morningglory” value [7, 16] was 75, the “Plant response rating, Rice” value [8] was 0 and the “Plant response rating (scale of 0 to 100 where 0 is no effect and 100 is complete control), Johnsongrass” value [9] was 5. For the same compound, the “Johnsongrass plant response rating” value [9] was 5, the “Plant response rating, Johnsongrass” value [9, 15] was 10 and the “Plant response rating, Johnsongrass” value [9, 16] was 5. For the same compound, the “Plant response rating (scale of 0 to 100), Nutsedge, Yellow” value ([10]; Preemergence, 250 g ai/ha) was 60, the “Nutsedge, Yellow plant response rating” value [10, 17] was 5 and the “Nutsedge, Yellow plant response rating” value [10, 18] was 25. The “Nutsedge, Yellow plant response rating” value [10, 19] was 40, the “Plant response rating (scale of 0 to 100 where 0 is no effect and 100 is complete control), Nutsedge, Yellow” value [11] was 0 and the “Nutsedge, Yellow plant response rating” value [11] was 5. The “Plant response rating, Nutsedge, Yellow” value [11, 15] was 5, the “Plant response rating, Nutsedge, Yellow” value [11, 16] was 5 and the “Plant response rating (scale of 0 to 100 where 0 is no effect and 100 is complete control), Foxtail, Giant” value [12] was 10. For the same compound, the “Foxtail, Giant plant response rating” value [12] was 10, the “Plant response rating, Foxtail, Giant” value [12, 15] was 50 and the “Plant response rating, Foxtail, Giant” value [12, 16] was 45. The “Plant response rating (scale of 0 to 100 where 0 is no effect and 100 is complete control), Ryegrass, Italian” value [13, 14] was 5, the “Ryegrass, Italian plant response rating” value ([13]; postemergence, 62 g ai/ha, scale 0 to 100) was 5 and the “Plant response rating, Ryegrass, Italian” value [13, 20] was 10. For the same compound, the “Plant response rating, Ryegrass, Italian” value [13, 21] was 5.

For `CCNC(=O)c1cc(CC)n(Cc2cc(C(F)(F)F)nn2C)n1` [Compound 154], the “Pigweed plant response rating” value [1] was 65, the “Plant response rating, Pigweed” value [1, 15] was 95 and the “Plant response rating, Pigweed” value [1, 16] was 85. The “Blackgrass plant response rating” value [2, 17] was 75, the “Blackgrass plant response rating” value [2, 18] was 90 and the “Plant response rating, Blackgrass” value [2, 22] was 90. For the same compound, the “Blackgrass plant response rating” value [2, 23] was 90, the “Plant response rating (scale of 0 to 100 where 0 is no effect and 100 is complete control), Oat, Wild” value [3] was 5 and the “Oat, Wild plant response rating” value [3] was 5. For the same compound, the “Plant response rating, Oat, Wild” value [3, 15] was 25, the “Plant response rating, Oat, Wild” value [3, 16] was 20 and the “Wheat plant response rating” value [4, 17] was 0. The “Wheat plant response rating” value [4, 18] was 5, the “Plant response rating, Wheat” value [4, 22] was 50 and the “Wheat plant response rating” value [4, 23] was 90. The “Lambsquarters plant response rating” value [5, 17] was 65, the “Lambsquarters plant response rating” value [5, 18] was 98 and the “Plant response rating, Lambsquarters” value [5, 22] was 100. The “Lambsquarters plant response rating” value [5, 23] was 98, the “Plant response rating, Barnyardgrass” value [6] was 45 and the “Plant response rating (scale of 0 to 100 where 0 is no effect and 100 is complete control), Morningglory” value [7] was 15. For the same compound, the “Morningglory plant response rating” value [7] was 60, the “Plant response rating, Morningglory” value [7, 15] was 95 and the “Plant response rating, Morningglory” value [7, 16] was 85. The “Plant response rating, Rice” value [8] was 0, the “Plant response rating (scale of 0 to 100 where 0 is no effect and 100 is complete control), Johnsongrass” value [9] was 0 and the “Johnsongrass plant response rating” value [9] was 0. The “Plant response rating, Johnsongrass” value [9, 15] was 5, the “Plant response rating, Johnsongrass” value [9, 16] was 5 and the “Nutsedge, Yellow plant response rating” value [10, 17] was 0. For the same compound, the “Nutsedge, Yellow plant response rating” value [10, 18] was 15, the “Plant response rating, Nutsedge, Yellow” value [10, 22] was 35 and the “Nutsedge, Yellow plant response rating” value [10, 23] was 60. For the same compound, the “Plant response rating (scale of 0 to 100 where 0 is no effect and 100 is complete control), Nutsedge, Yellow” value [11] was 0, the “Nutsedge, Yellow plant response rating” value [11] was 0 and the “Plant response rating, Nutsedge, Yellow” value [11, 15] was 5. For the same compound, the “Plant response rating, Nutsedge, Yellow” value [11, 16] was 5, the “Plant response rating (scale of 0 to 100 where 0 is no effect and 100 is complete control), Foxtail, Giant” value [12] was 5 and the “Foxtail, Giant plant response rating” value [12] was 5. For the same compound, the “Plant response rating, Foxtail, Giant” value [12, 15] was 10, the “Plant response rating, Foxtail, Giant” value [12, 16] was 5 and the “Plant response rating, Ryegrass, Italian” value [13, 20] was 5. The “Plant response rating, Ryegrass, Italian” value [13, 21] was 0.
